Test results reported in patent US11691984B2, “Compounds and methods for DCAF-mediated protein degradation” (The Scripps Research Institute, priority 2018, dated 2023).

Columns and labels:
[1] = target: T1, BRD4 (Homo sapiens, UniProt O60885); assay: Western blot of BRD4 in DCAF16−/− HEK293 cells; type: cell-based; details: 40 μM KB02-JQ1, 24 hours
T1 construct: degradation of endogenous BRD4 in HEK293T cells; endogenous in cells; host or cells: HEK293T (A10, A16); HEK293 DCAF16+/+ and DCAF16-/- clones (A11)
Protocol: (§1) DCAF16 CRISPR knockout HEK293 cell pools were generated by Synthego using nucleofection of Cas9-gRNA ribonucleoprotein (RNP) complex. Editing efficiency 48 h post nucleofection of cell pool was 88%. HEK293 editing cell pools were subjected to single cell sorting in The Flow Cytometry Core Facility at Scripps Research. Individual cell clone was grown in 96-well plate until the cells were confluent. To confirm the editing in DCAF16 gene, genomic DNAs from each clone were extracted using PureLink Genomic DNA Mini Kit (Invitrogen). DCAF16 gene was amplified by PCR and confirmed by DNA sequencing. Indel analysis was performed using ICE analysis from Synthego.
Cells were collected and lysed in 1% NP-40 lysis buffer (25 mM Tris-HCl pH 7.4, 150 mM NaCl, 10% glycerol, 1% Nonidet P-40) with complete protease inhibitor cocktail (Roche). Cells were vortexed and sonicated for 5 pulses (40%, 4). The supernatant was collected after centrifugation at 16,000 g for 10 min at 4° C. Protein concentration was determined by DC assay (Bio-Rad). Protein lysate was heated at 95° C. for 5 min in 1× Laemmli sample buffer. […] The chemiluminescence signal in membrane was recorded after developing in ECL or ECL plus western blotting detection reagent using CL-XPosure film (Thermo Scientific). Relative band intensities were quantified using ImageJ.

[2] = target: T2, FLAG-FKBP12_NLS (Homo sapiens, UniProt P62942); assay: Western blot of FLAG-FKBP12_NLS in DCAF16+/+ and DCAF16−/− HEK293 clones; type: cell-based; set-up: expressed in transfected cells; host or cells: HEK293 DCAF16+/+ and DCAF16-/- clones (lentiviral pCDH-CMV-MCS-EF1-Puro)
Protocol: as §1
Target sequence in this assay (P62942 with tags, fused parts or gaps): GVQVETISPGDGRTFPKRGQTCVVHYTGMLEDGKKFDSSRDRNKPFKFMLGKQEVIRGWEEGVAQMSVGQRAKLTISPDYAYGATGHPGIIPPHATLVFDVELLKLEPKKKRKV
To confirm DCAF16 knockout at the protein level, lentivirus containing FLAG-FKBP12_NLS was used to infect three wild type DCAF16 clones (clone 6, 17, 18) and three DCAF16 knockout clones (clone 3, 4, 22). Clone 6 stably expressing FLAG-FKBP12_NLS was grown in heavy SILAC DMEM medium for 5 generations. The other clones stably expressing FLAG-FKBP12_NLS were grown in light SILAC DMEM medium for 5 generations. All 6 clones were treated with 5 μM KB02-SLF and 10 μM MG132 for 2 h. Cells were collected and analyzed for FLAG-FKBP12_NLS associating proteins using the same method described below. Proteins from clone 6 (heavy labeled) were combined with the other clones (light labeled) separately and identified by LC-MS/MS.
(§2) Cells were collected and lysed in 1% NP-40 lysis buffer (25 mM Tris-HCl pH 7.4, 150 mM NaCl, 10% glycerol, 1% Nonidet P-40) with complete protease inhibitor cocktail (Roche). Cells were vortexed and sonicated for 5 pulses (40%, 4). The supernatant was collected after centrifugation at 16,000 g for 10 min at 4° C. Protein concentration was determined by DC assay (Bio-Rad). Protein lysate was heated at 95° C. for 5 min in 1× Laemmli sample buffer. Proteins were resolved by 12% or 14% Novex Tris-Glycine Mini Gels (Invitrogen) and transferred to polyvinylidene fluoride (PVDF) membrane (0.2 Bio-Rad). The membrane was blocked with 5% BSA in TBST buffer (0.1% Tween 20, 20 mM Tris-HCl 7.6, 150 mM NaCl) at room temperature for 1 h. The antibody was diluted with fresh 5% BSA in TBST buffer (1:10000 dilution for FLAG, HA and β-Actin, 1:1000 dilution for others) and incubated with membrane (1 h room temperature for FLAG, HA and β-Actin, overnight 4° C. for others). Membrane was washed three times with TBST buffer and incubated with secondary antibody (1:5000 dilution in 5% BSA in TBST) at room temperature for 1 h. Membrane was washed three times with TBST buffer. The chemiluminescence signal in membrane was recorded after developing in ECL or ECL plus western blotting detection reagent using CL-XPosure film (Thermo Scientific). Relative band intensities were quantified using ImageJ.

[3] = target: T2, FLAG-FKBP12_NLS; assay: Polyubiquitination of immunoprecipitated FLAG-FKBP12_NLS in HEK293T cells; type: cell-based; set-up: expressed in transfected cells; host or cells: HEK293T, (lentiviral pCDH-CMV-MCS-EF1-Puro); details: KB02-SLF 5 μM, MG132 10 μM, 2 hours
Protocol: as §2, with “ImageJ. […]” for “ImageJ.”
Target sequence in this assay (P62942 whole entry): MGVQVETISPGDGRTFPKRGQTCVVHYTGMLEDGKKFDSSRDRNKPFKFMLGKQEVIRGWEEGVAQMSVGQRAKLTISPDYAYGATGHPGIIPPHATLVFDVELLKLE

[4] = test system: HEK293T cells; assay: Cell viability assay (Cell Titer Glo); type: cell-based, human
Protocol: HEK293T cells were seeded in 96-well clear bottom white plate (Corning) at 3×10^4 cells per well in 100 μL of DMEM medium and grown for 24 h. The cells were treated with 0.625, 1.25, 2.5, 5, 10, 20 and 40 μM of KB02-SLF or KB02-JQ1 (DMSO stock, final DMEM concentration is 0.1% (v/v)) in 100 μL of DMEM medium for 24 h. 50 μL of Cell Titer Glo reagent (Promega) was added to each well and incubate for 10 min at room temperature. The luminescence was read on CLARIOstar (BMG LAB TECH).

[5] = target: T3, FLAG-FKBP12 (Homo sapiens, UniProt P62942); assay: Polyubiquitination of immunoprecipitated cytosolic FLAG-FKBP12 in HEK293T cells; type: cell-based; details: KB02-SLF 5 μM, MG132 10 μM, 2 hours
T3 construct: expressed in transfected cells; host or cells: HEK293T (lentiviral transduction, puromycin selection)
Protocol: as §2, with “ImageJ. […]” for “ImageJ.”

[6] = target: T4, HA-DCAF16 and FLAG-FKBP12_NLS (Homo sapiens, UniProt P62942+Q9NXF7); assay: Co-immunoprecipitation of HA-DCAF16 with FLAG-FKBP12_NLS (ternary complex) in HEK293T cells; type: cell-based; details: MG132 10 μM
T4 construct: expressed in transfected cells; host or cells: HEK293T stably expressing FLAG-FKBP12_NLS, transiently transfected with HA-DCAF16 (pRK5)
Protocol: as §2
(§3) Cells were collected and lysed in 1% NP-40 lysis buffer with complete protease inhibitor cocktail on ice for 10 min, followed by 5 pulses of sonication (40%, 4). After centrifugation at 16,000 g for 10 min at 4° C., the supernatant was collected. FLAG affinity gel (20 μL slurry per sample) was incubated with protein lysates at 4° C. for 1 h and washed four times with IP washing buffer. The affinity gel was heated at 95° C. for 10 min in 2× Laemmli sample buffer, followed by western blot analysis.

[7] = test system: HA-DCAF16 and FLAG-FKBP12_NLS; assay: as above; type: cell-based, human; details: KB02-SLF, cells pre-treated with MG132
Protocol: as §2, §3

T4 sequence (Q9NXF7 whole entry): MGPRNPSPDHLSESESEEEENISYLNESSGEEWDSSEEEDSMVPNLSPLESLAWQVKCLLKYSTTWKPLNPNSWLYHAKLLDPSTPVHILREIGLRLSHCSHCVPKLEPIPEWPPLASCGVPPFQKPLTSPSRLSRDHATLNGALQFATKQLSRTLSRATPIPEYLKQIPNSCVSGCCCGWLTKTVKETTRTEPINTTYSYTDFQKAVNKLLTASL
T4 sequence (P62942 2-108): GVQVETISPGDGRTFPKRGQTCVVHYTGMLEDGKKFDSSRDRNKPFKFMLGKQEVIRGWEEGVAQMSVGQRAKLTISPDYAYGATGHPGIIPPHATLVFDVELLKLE
T4 sequence (Q16531 whole entry partner): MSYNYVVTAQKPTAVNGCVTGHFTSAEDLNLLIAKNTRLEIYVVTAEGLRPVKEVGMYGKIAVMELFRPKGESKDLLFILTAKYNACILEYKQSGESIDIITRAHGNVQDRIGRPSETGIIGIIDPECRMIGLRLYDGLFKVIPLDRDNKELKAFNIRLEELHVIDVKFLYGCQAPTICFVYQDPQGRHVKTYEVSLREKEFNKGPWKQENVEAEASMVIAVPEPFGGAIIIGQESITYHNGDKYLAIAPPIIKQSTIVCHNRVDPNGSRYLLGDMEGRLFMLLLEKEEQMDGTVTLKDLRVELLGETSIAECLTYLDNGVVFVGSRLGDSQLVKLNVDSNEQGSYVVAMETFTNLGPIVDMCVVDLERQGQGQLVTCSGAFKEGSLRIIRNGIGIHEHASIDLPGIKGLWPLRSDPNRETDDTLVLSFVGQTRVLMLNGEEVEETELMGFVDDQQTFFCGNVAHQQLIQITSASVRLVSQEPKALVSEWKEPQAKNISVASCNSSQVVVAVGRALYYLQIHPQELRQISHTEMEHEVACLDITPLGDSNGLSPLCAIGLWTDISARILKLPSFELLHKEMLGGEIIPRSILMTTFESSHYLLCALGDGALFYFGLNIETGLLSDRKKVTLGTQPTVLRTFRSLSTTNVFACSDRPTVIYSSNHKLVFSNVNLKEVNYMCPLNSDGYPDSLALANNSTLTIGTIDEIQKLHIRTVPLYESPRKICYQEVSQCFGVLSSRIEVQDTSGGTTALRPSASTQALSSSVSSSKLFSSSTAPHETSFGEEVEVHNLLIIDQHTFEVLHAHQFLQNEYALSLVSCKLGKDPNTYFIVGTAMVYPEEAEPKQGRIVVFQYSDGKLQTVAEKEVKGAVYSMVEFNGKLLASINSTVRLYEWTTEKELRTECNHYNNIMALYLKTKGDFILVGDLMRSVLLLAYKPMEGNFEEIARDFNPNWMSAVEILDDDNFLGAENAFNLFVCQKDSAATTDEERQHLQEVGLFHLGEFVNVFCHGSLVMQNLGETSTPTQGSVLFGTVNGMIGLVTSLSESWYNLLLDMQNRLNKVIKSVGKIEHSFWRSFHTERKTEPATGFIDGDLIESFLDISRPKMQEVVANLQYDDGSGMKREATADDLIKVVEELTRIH
T3 sequence (P62942 whole entry): as the sequence (P62942 whole entry) above

BRD4 degradation in DCAF16−/− cells [1] | SMILES | degradation of FKBP12_NLS in DCAF16−/− clones ([2]; HEK293 clones 3, 4, 22, 0.2-5 μM, 8 h) | degradation of FKBP12_NLS in DCAF16+/+ clones ([2]; HEK293 clones 6, 17, 18, 0.2-5 μM, 8 h) | FKBP12_NLS degradation in DCAF16−/− cells expressing C58S-, C173S- or C178S-DCAF16 ([2]; KB02-SLF 1.5 μM, 8 hours) | FKBP12_NLS degradation in DCAF16−/− cells with recombinant HA-DCAF16 ([2]; KB02-SLF 1.5 μM, 8 hours) | polyubiquitination of FKBP12_NLS after shRNA knockdown of DCAF16 [3] | polyubiquitination of nuclear FKBP12_NLS [3] | test concentrations with evidence of cytotoxicity [4] [µM] | polyubiquitination of cytosolic FKBP12 [5] | co-immunoprecipitation of HA-DCAF16 with FLAG-FKBP12_NLS ([6]; 5 μM, 2 hours) | conversion of HA-DCAF16 to higher molecular weight (HMW) form ([6]; increasing concentrations of KB02-SLF, 2 h) | co-immunoprecipitation of C173S- and C178S-DCAF16 with FKBP12_NLS [7] | co-immunoprecipitation of C177S- and C179S-DCAF16 with FKBP12_NLS [7]
substantially blocked | Cc1sc2c(c1C)C(c1ccc(Cl)cc1)=N[C@@H](CC(=O)NCCOCCOCCNC(=O)COc1ccc3c(c1)CCCN3C(=O)CCl)c1nnc(C)n1-2 [KB02-JQ1, (S)-2-((1-(2-chloroacetyl)-1,2,3,4-tetrahydroquinolin-6-yl)oxy)-N-(2-(2-(2-(2-(4-(4-chlorophenyl)-2,3,9-trimethyl-6H-thieno[3,2-f][1,2,4]triazolo[4,3-a][1,4]diazepin-6-yl)acetamido)ethoxy)ethoxy)ethyl)acetamide] | – | – | – | – | – | – | – | – | – | – | – | –
– | CCC(C)(C)C(=O)C(=O)N1CCCC[C@H]1C(=O)O[C@H](CCc1ccc(OC)c(OC)c1)c1cccc(NC(=O)CCOCCOCCNC(=O)COc2ccc3c(c2)CCCN3C(=O)CCl)c1 [KB02-SLF, (R)-1-(3-(3-(2-(2-(2-((1-(2-chloroacetyl)-1,2,3,4-tetrahydroquinolin-6-yl)oxy)acetamido)ethoxy)ethoxy)propanamido)phenyl)-3-(3,4-dimethoxyphenyl)propyl (S)-1-(3,3-dimethyl-2-oxopentanoyl)piperidine-2-carboxylate] | not in any of the three DCAF16−/− clones | supported the degradation of FKBP12_NLS in all three DCAF16+/+ clones | supported KB02-SLF-induced degradation of FKBP12_NLS | restored KB02-SLF-induced FKBP12_NLS degradation | abolished KB02-SLF-induced polyubiquitination of FKBP12_NLS | induced polyubiquitination of nuclear FKBP12_NLS | > 10 | not cytosolic FKBP12 | HA-DCAF16 and DDB1 co-immunoprecipitated with FLAG-FKBP12_NLS | Only a modest fraction of HA-DCAF16 was converted to this HMW | co-immunoprecipitated with FKBP12_NLS in KB02-SLF-treated cells | not C177S- and C179S-DCAF16
